Test results: patent US20070082876A1, “Novel C18 modified retrosteroids as progesterone receptor modulator compounds” (Solvay Pharmaceuticals GmbH, priority 2005, published 2007)

Legend:
[1] = system: progesterone receptor (alkaline phosphatase expression in T47D human breast carcinoma cells); assay: Progesterone-dependent alkaline phosphatase expression assay (AP assay), agonistic and antagonistic mode; format: cell-based; settings: for inhibition at 0.1 µM: 100 nM compound, inhibition of alkaline phosphatase induction by 1 nM Dydrogesterone, read-out: PI [100 nM] (% inhibition); for activation at 0.1 µM: 48 h, 100 nM compound alone, alkaline phosphatase induction, 100% = 1 nM Dydrogesterone, read-out: PS [100 nM] (% stimulation); for IC50: antagonistic potency against 1 nM Dydrogesterone; for EC50: agonistic potency
Method: The progesterone-dependent modulation of alkaline phosphatase expression was examined using T47D human breast carcinoma cells [Keydar et al., 1979]. The assay was performed as previously described by Di Lorenzo et al. (1991) with the modification of using Dydrogesterone as comparative progestin to determine the antagonistic and agonistic activity.
The cell line was purchased from CLS Cell Lines Service (Hildastrasse 21, D-69214 Eppelheim, Germany).
In brief, the cells were plated in 96-well plates at 40,000 cells/well using the following growth medium: RPMI 1640 with: 10% FBS, 1 mM Sodium Pyruvat MEM, 10 mM Hepes, 0.01 mg/ml Bovine insulin, and 25 μg/ml Gentamycin. After 24 h of cultivation, the growth medium was replaced with medium containing 2% fetal bovine serum and the test compounds were added to each well to achieve the appropriate compound concentration: For determination of agonistic activity only the test compounds were added; for measurement of antagonistic activity the test compounds and additionally Dydrogesterone as standard progesterone agonist was added to a final concentration of 1 nM. After 48 h of cultivation, the medium was removed and the cells were washed with 200 μl of Dulbecco's phosphate-buffered saline without calcium and magnesium (PBS(−)).
Then the cells were fixed with 3.7% formaldehyde in phosphate-buffered saline for 15 min at 22° C. After washing the cells with PBS, 100 μl of a […] (pNPP) solution (pNPP Liquid Substrate System; Sigma) was added to each well and incubated for 2 h at room temperature protected from light. The reaction was stopped with 100 μl 1N NaOH and the absorbance was measured with a spectrophotometer (Victor, Perkin Elmer) at 405 nm.
The results are expressed as alkaline phosphatase induction (as 100% with 1 nM Dydrogesterone) or inhibition (against alkaline phosphatase induction by 1 nM Dydrogesterone) at a certain concentration of test compound.
Calculations: % stimulation=(effect compound−basal)/(effect dydro 1 nM−basal)*100 % inhibition of 1 nM Dydro=100*{1−[(effect compound·basal)/(effect dydro 1 nM·basal)]}
For each compound the % inhibition (PI) and % stimulation (PS), respectively, at a compound concentration of 100 nM was determined. For selected compounds, the corresponding values were measured for several different concentrations, and subsequently were plotted against the concentration of the test compound, and used to calculate the IC50 value (for the antagonistic potency; the IC50 value is the concentration (nM), required to reduce the maximal response by 50%) and EC50 values (for the agonistic potency; the EC50 value is the effective concentration (nM) that produced 50% of the maximum response), respectively.

[2] = molecular target: T1, bovine progesterone receptor (Bos taurus, UniProt F1N712); assay: Progesterone receptor binding assay (CEREP, 3H-R5020 ligand, uterus tissue); settings: bovine PR; 3H-R5020 as ligand, uterus tissue as receptor source; read-out: Progesterone Receptor binding (pKi) (converted)
T1 construct: uterus tissue as the source of progesterone receptor; tissue CEREP Progesterone receptor-814; host or cells: bovine uterus tissue (the cited method, Hurd & Moudgil 1988, used calf uterus)
T1 sequence (F1N712 1-914): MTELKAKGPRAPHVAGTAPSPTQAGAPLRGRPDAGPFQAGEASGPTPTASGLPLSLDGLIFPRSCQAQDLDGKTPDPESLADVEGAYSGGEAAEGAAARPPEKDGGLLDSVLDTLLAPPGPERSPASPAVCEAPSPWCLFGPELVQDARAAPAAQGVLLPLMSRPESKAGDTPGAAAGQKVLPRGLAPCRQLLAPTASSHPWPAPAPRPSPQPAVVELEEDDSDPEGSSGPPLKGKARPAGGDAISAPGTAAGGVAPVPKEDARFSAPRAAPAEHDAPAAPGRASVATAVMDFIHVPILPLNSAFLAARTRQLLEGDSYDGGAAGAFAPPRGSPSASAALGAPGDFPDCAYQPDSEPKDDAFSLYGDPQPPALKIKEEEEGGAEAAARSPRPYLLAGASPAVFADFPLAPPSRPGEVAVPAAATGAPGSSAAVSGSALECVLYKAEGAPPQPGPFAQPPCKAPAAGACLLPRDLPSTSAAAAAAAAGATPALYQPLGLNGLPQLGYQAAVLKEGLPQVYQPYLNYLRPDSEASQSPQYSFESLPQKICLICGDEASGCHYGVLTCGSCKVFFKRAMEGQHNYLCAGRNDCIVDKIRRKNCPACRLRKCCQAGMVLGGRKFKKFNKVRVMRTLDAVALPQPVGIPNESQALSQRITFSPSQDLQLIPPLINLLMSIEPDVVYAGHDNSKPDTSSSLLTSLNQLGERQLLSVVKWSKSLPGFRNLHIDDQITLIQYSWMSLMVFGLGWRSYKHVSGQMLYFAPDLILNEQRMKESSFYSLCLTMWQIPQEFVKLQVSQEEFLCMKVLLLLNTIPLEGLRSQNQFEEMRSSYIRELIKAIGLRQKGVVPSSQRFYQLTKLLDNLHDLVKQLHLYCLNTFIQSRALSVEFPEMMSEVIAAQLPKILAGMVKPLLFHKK
Method: The progesterone receptor (PR) binding assays were performed at CEREP (Celle I'Evescault, France). The binding to the bovine progesterone receptor (Assay Cat No: Progesterone receptor-814) was measured using 3H-R5020 as ligand and uterus tissue as the source of progesterone receptor. The assay was performed as described by Hurd & Moudgil [1988]. […] The results of the receptor binding assay are presented as the individual pKi values for the bovine PR which were determined by measuring the binding activity for a concentration range of each compound.

cycling guinea pigs = assay: Guinea pig model (luteolysis and uterine PR expression in cycling guinea pigs); format: in vivo; settings: 10mg/kg s.c. once daily on days 10-17 of the cycle; FIG. 1
Description: An assay how to assess the progesterone antagonists (PAs) and progesterone receptor modulators (PRMs) with respect to PR agonistic and antagonistic activities in vivo is described by Elger et al [2000] and within WO 04/014935 using cycling guinea pigs. In this assay, pure PR antagonists inhibit luteolysis at the end of the ovarian cycle, whereas PR agonist and SPRMs support luteolysis, i.e. this is a very sensitive in vivo method to reveal residual agonistic activity of SPRMs. Inhibition of luteolysis is reflected by elevated serum progesterone levels at day 10-17 and inhibition of uterine prostaglandin F2α, as well as by certain histological characteristics in uterus and ovary, such as increased expression of progesterone receptors and decreased glandular differentiation in the uterus, as well as persistence of large intact corpora lutea up to day 18.
Adult female guinea pigs (strain Dunkin Hartley, Crl:HA; body weight 500-700 g) are purchased from Charles River (Sulzfeld, Germany). Blood samples are drawn from the Vena saphena three times a week to monitor ovarian cycles by determination of progesterone levels. […]
Antiluteolytic activity is evaluated by assessment of serum progesterone profiles throughout the treatment period from day 10 to day 17 (FIG. 1).
Antiprogestational effects on the uterus are assessed by determination of the degree of PR expression. […]

Structure (SMILES)	inhibition at 0.1 µM [1] [%]	activation at 0.1 µM [1] [%]	IC50 [1] [nM]	Ki [2] [nM]	EC50 [1] [nM]	antiluteolytic activity (serum progesterone levels day 10 to day 17) (cycling guinea pigs)
CC(=O)[C@H]1CC[C@H]2[C@@H]3CCC4=CC(=O)CC[C@@]4(C)[C@@H]3CC[C@]12CCCc1ccc(/C=N/O)cc1 [No. 1]	60	1	31.6	1000	–	–
CC(=O)[C@H]1CC[C@H]2[C@@H]3C=CC4=CC(=O)CC[C@@]4(C)[C@@H]3CC[C@]12CCCc1ccc(/C=N/O)cc1 [No. 2]	77	10	20	200	–	–
CCNC(=O)O/N=C/c1ccc(CCC[C@]23CC[C@@H]4[C@@H](CCC5=CC(=O)CC[C@]54C)[C@@H]2CC[C@@H]3C(C)=O)cc1 [No. 4]	51	4	50.1	501	–	–
CCNC(=O)O/N=C/c1ccc(CCC[C@]23CC[C@@H]4[C@@H](C=CC5=CC(=O)CC[C@]54C)[C@@H]2CC[C@@H]3C(C)=O)cc1 [No. 5]	52	35	5.01	200	–	–
CCNC(=O)O/N=C/c1ccc(CCC[C@]23CC[C@@H]4[C@@H](C=CC5=CC(=O)CC[C@]54C)[C@@H]2CC[C@]3(OC(=O)OCC)C(C)=O)cc1 [No. 6]	32	60	–	501	50.1	–
CC(=O)[C@H]1CC[C@H]2[C@@H]3C=CC4=CC(=O)CC[C@@]4(C)[C@@H]3CC[C@]12CCCc1ccc(C(N)=O)cc1 [No. 13]	79	7	50.1	200	–	–
CC(=O)[C@H]1CC[C@H]2[C@@H]3C=CC4=CC(=O)CC[C@@]4(C)[C@@H]3CC[C@]12CCCc1ccccc1 [compound 17]	79	8	–	–	25.1	–
COc1cccc(CCC[C@]23CC[C@@H]4[C@@H](C=CC5=CC(=O)CC[C@]54C)[C@@H]2CC[C@@H]3C(C)=O)c1 [compound 25]	73	12	–	–	15.8	–
COc1cc(CCC[C@]23CC[C@@H]4[C@@H](C=CC5=CC(=O)CC[C@]54C)[C@@H]2CC[C@@H]3C(C)=O)cc(OC)c1 [compound 29]	69	15	–	–	15.8	–
CC(=O)[C@H]1CC[C@H]2[C@@H]3C=CC4=CC(=O)CC[C@@]4(C)[C@@H]3CC[C@]12C [dydrogesterone, (9β,10α)-Pregna-4,6-diene-3,20-dione]	–	–	–	–	–	progesterone levels decrease
CC#C[C@]1(O)CC[C@H]2[C@@H]3CCC4=CC(=O)CCC4=C3[C@@H](c3ccc(N(C)C)cc3)C[C@@]21C [mifepristone]	–	–	–	–	–	do not decline
